Test systems include DU-145; HL-60; HOP-92; MDA-MB-435; Malme-3M; NCI-H226; NCI-H23; OVCAR-3; OVCAR-4; OVCAR-8; PC-3; RXF 393; SF-539; SK-MEL-28; SK-OV-3; SR; SW-620; UACC-257; UACC-62; SNB-75.
Holding throughout (test): NCI anticancer screen, dose series, 48 h

Here are results for ten compounds from ChEMBL document CHEMBL1201862, “PubChem BioAssay data set” (2004).

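Dose response: 5 concentrations. Exposure: 48 h. Format: 96-well plates. Endpoint: linear interpolation; highest concentration if not reached. The concentration for 50% growth inhibition is given as GI50.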 Active and inactive are the calls of the source. Rule as the data show it: active = GI50 up to about 1.1 µM and inactive = higher.

Take `CN(C)c1ccc(C(c2ccc(N(C)C)cc2)c2ccc([N+](=O)[O-])cc2)cc1`: the GI50 is > 100 µM (inactive) with DU-145; 23.9 µM (inactive) with HL-60; > 100 µM (inactive) in the assay with HOP-92; > 100 µM (inactive) with MDA-MB-435; > 100 µM (inactive) in the assay with Malme-3M; > 100 µM (inactive) with NCI-H226. Also, the GI50 in the assay on NCI-H23, in the assay on OVCAR-3, in the assay on OVCAR-4, with OVCAR-8, in the assay with PC-3 and in the assay on RXF 393 was > 100 µM (inactive) throughout. The GI50 with SF-539 is > 100 µM (inactive); with SK-MEL-28, > 100 µM (inactive); in the assay on SK-OV-3, > 100 µM (inactive); in the assay on SR, 90.6 µM (inactive); in the assay on SW-620, > 100 µM (inactive); with UACC-257, > 100 µM (inactive). Moreover, in the assay with UACC-62, the GI50 is > 100 µM (inactive).
For `N#C/C=C1\C=CC(O)C(O)C1OC1OC(CO)C(O)C(O)C1O` (stereo not drawn), the GI50 with DU-145, with HL-60, with HOP-92, in the assay with MDA-MB-435, with Malme-3M and in the assay on NCI-H23 was > 100 µM (inactive) each time. The GI50 in the assay on OVCAR-3, in the assay with OVCAR-4, with OVCAR-8, in the assay on PC-3, in the assay on RXF 393 and with SF-539 was > 100 µM (inactive) each time. The GI50 with SK-MEL-28 was > 100 µM (inactive); in the assay on SK-OV-3 it was > 100 µM (inactive); in the assay with SNB-75, > 100 µM (inactive); in the assay on SR, > 10 µM (inactive); in the assay on SW-620 it was > 100 µM (inactive); in the assay with UACC-257 it was > 100 µM (inactive). For the same compound, the GI50 in the assay on UACC-62 is > 100 µM (inactive).
Regarding `Cc1ccc2c(c1)CC1(Cc3cc(C)ccc3C1=O)C2=O`, the GI50 in the assay with DU-145, in the assay with HL-60, in the assay on HOP-92, in the assay with MDA-MB-435, in the assay with Malme-3M and in the assay on NCI-H23 was > 100 µM (inactive) throughout. Moreover, the GI50 in the assay on OVCAR-3, in the assay on OVCAR-4, in the assay with OVCAR-8, in the assay with PC-3, in the assay with RXF 393 and in the assay with SF-539 was > 100 µM (inactive) each time. The GI50 in the assay on SK-MEL-28, in the assay with SK-OV-3, in the assay on SNB-75, in the assay on SR, in the assay with SW-620 and with UACC-257 was > 100 µM (inactive) each time.
Turning to `CC(=O)NC(Cc1c[nH]cn1)C(=O)N1CCCC1C(N)=O` (stereo not drawn), the GI50 in the assay with DU-145, in the assay on HL-60, in the assay on HOP-92, with MDA-MB-435, in the assay with Malme-3M and with NCI-H226 was > 100 µM (inactive) throughout. Moreover, the GI50 with NCI-H23, in the assay on OVCAR-3, in the assay with OVCAR-4, in the assay on OVCAR-8, with PC-3 and in the assay on RXF 393 was > 100 µM (inactive) each time. The GI50 in the assay with SK-MEL-28, in the assay with SK-OV-3, in the assay with SNB-75, in the assay with SR, with SW-620 and with UACC-62 was > 100 µM (inactive) in each case.
As to `C/C=C/COc1cc(NC(=S)OC(C)C)ccc1Cl.C/C=C\COc1cc(NC(=S)OC(C)C)ccc1Cl`, the GI50 in the assay on DU-145 is 26.5 µM (inactive); with HL-60, 19.3 µM (inactive); in the assay with HOP-92 it was 11.8 µM (inactive); in the assay on MDA-MB-435, 21.2 µM (inactive); with Malme-3M, 15 µM (inactive); with NCI-H226, 17.5 µM (inactive). In addition, the GI50 in the assay on NCI-H23 is 16.9 µM (inactive); in the assay on OVCAR-3 it was 18.5 µM (inactive); in the assay on OVCAR-4, 16.8 µM (inactive); with OVCAR-8, 18.7 µM (inactive); in the assay with PC-3, 16.3 µM (inactive); in the assay with RXF 393, 14.9 µM (inactive). Further, the GI50 in the assay with SF-539 was 19.8 µM (inactive); in the assay with SK-MEL-28 it was 17.6 µM (inactive); in the assay on SK-OV-3 it was 21.9 µM (inactive); in the assay on SR, 16.8 µM (inactive); in the assay with SW-620, 17.1 µM (inactive); in the assay on UACC-257 it was 18.7 µM (inactive). Besides, the GI50 in the assay with UACC-62 is 15.8 µM (inactive).
As to `CN1C/C(=C\c2ccc(Cl)cc2)C(=O)/C(=C/c2ccc(Cl)cc2)C1`, the GI50 was 2.54 µM (inactive) in the assay on DU-145; 0.676 µM (active) in the assay with HL-60; > 26.9 µM (inactive) with HOP-92; 1.72 µM (inactive) in the assay with MDA-MB-435; 14.3 µM (inactive) in the assay on Malme-3M; 4.45 µM (inactive) with NCI-H226. Further, the GI50 was 2.44 µM (inactive) in the assay with NCI-H23; 1.63 µM (inactive) in the assay on OVCAR-3; 1.11 µM (active) with OVCAR-4; 0.232 µM (active) with OVCAR-8; 1.77 µM (inactive) with PC-3; 0.834 µM (active) with RXF 393. In addition, the GI50 was 0.512 µM (active) with SF-539; 3.78 µM (inactive) in the assay on SK-MEL-28; 0.635 µM (active) in the assay on SNB-75; 0.323 µM (active) with SR; 0.386 µM (active) in the assay with SW-620; 0.443 µM (active) with UACC-257. In addition, the GI50 with UACC-62 is 2.22 µM (inactive).
Consider `O=C(NCCCl)NCc1ccccc1`, for which the GI50 in the assay on DU-145, in the assay on HL-60, with HOP-92, in the assay on MDA-MB-435, with Malme-3M and with NCI-H226 was > 100 µM (inactive) each time. Further, the GI50 with NCI-H23, in the assay with OVCAR-3, in the assay with OVCAR-4, in the assay with OVCAR-8, in the assay with PC-3 and with RXF 393 was > 100 µM (inactive) each time. In addition, the GI50 with SK-MEL-28, with SK-OV-3, with SNB-75, in the assay on SR, with SW-620 and in the assay with UACC-257 was > 100 µM (inactive) in each case. For the same compound, in the assay with UACC-62, the GI50 was > 100 µM (inactive).
For the compound `NS(=O)(=O)c1ccc(Nc2c3ccccc3nc3c(C(=O)NC(CO)(CO)CO)cccc23)cc1`, the GI50 is 0.194 µM (active) with DU-145; 0.21 µM (active) with HL-60; 0.153 µM (active) in the assay with HOP-92; 0.212 µM (active) in the assay on MDA-MB-435; 0.135 µM (active) with Malme-3M; 0.136 µM (active) with NCI-H226. Moreover, the GI50 in the assay with NCI-H23 is 0.15 µM (active); in the assay with OVCAR-3, 0.15 µM (active); in the assay with OVCAR-4, 0.0598 µM (active); with OVCAR-8 it was 0.181 µM (active); in the assay with PC-3, 0.226 µM (active); in the assay on RXF 393, 0.185 µM (active). Also, the GI50 is 0.204 µM (active) in the assay on SF-539; 0.242 µM (active) in the assay with SK-MEL-28; 0.188 µM (active) in the assay with SK-OV-3; 0.334 µM (active) with SR; 0.163 µM (active) in the assay with SW-620; 0.181 µM (active) with UACC-257. For the same compound, in the assay with UACC-62, the GI50 was 0.138 µM (active).
In the case of `COc1cc(COC(=O)N2CC=CC2C(=O)O)c([N+](=O)[O-])cc1OC` (stereo not drawn), the GI50 in the assay with DU-145, in the assay on HL-60, in the assay with HOP-92, with MDA-MB-435, in the assay on Malme-3M and in the assay on NCI-H226 was > 100 µM (inactive) each time. Further, the GI50 in the assay on NCI-H23, in the assay on OVCAR-3, with OVCAR-8, in the assay with PC-3, in the assay on RXF 393 and with SF-539 was > 100 µM (inactive) each time. Besides, the GI50 in the assay with SK-MEL-28, in the assay on SK-OV-3, in the assay with SNB-75, in the assay on SR, in the assay with SW-620 and in the assay with UACC-257 was > 100 µM (inactive) each time. In addition, the GI50 in the assay on UACC-62 was > 100 µM (inactive).
For the compound `COC1OC(C)C(NC(=O)OCC(Cl)(Cl)Cl)C2OC(C)(C)OC12` (stereo not drawn), the GI50 in the assay with DU-145, in the assay on HL-60, with HOP-92, in the assay on MDA-MB-435, in the assay with Malme-3M and in the assay with NCI-H226 was > 100 µM (inactive) each time. In addition, the GI50 in the assay with NCI-H23, in the assay on OVCAR-3, with OVCAR-4, with OVCAR-8, in the assay on PC-3 and with RXF 393 was > 100 µM (inactive) in each case. Moreover, the GI50 in the assay with SF-539, in the assay with SK-MEL-28, with SK-OV-3, with SR, in the assay on SW-620 and with UACC-257 was > 100 µM (inactive) in each case. Moreover, the GI50 with UACC-62 is > 100 µM (inactive).
